From the supplement of paper PMC10307832

Columns and labels:
Experiment in all cases: relative viability (nuclei count vs DMSO), 5 days (fraction); higher = more cells survive
[1] = test system: EPLC-272H
Summary of the method: (§1)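 Lung cancer cell lines in 1536-well plates got either a single drug or a fixed anchor-drug dose together with five library-drug doses (not always all listed) in √10 steps, by pin tool, on the day after seeding. Nuclei were counted after 5 days, and relative viability is the treated-to-vehicle ratio of nuclei counts. Values are medians of duplicate plates.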

[2] = test system: NCI-H1975
Summary of the method: as §1

[3] = test system: NCI-H2085
Summary of the method: as §1

[4] = test system: HARA
Summary of the method: as §1

[5] = test system: HCC-366
Summary of the method: as §1

[6] = test system: NCI-H1437
Summary of the method: as §1

[7] = test system: NCI-H727
Summary of the method: as §1

[8] = test system: LCLC-103H
Summary of the method: as §1

[9] = test system: HCC-15
Summary of the method: as §1

[10] = test system: NCI-H1395
Summary of the method: as §1

[11] = test system: HCC-78
Summary of the method: as §1

[12] = test system: HCC-827
Summary of the method: as §1

[13] = test system: NCI-H2405
Summary of the method: as §1

[14] = test system: NCI-H1792
Summary of the method: as §1

[15] = test system: NCI-H1944
Summary of the method: as §1

[16] = test system: HCC-44
Summary of the method: as §1

[17] = test system: NCI-H358
Summary of the method: as §1

O=C(O)CCCCC(CCSCc1ccccc1)SCc1ccccc1 (centres undefined) [CPI-613] + NC(=O)Nc1cc(-c2cccc(F)c2)sc1C(=O)N[C@H]1CCCNC1 [AZD7762] (partner 0.2 µM)
relative viability ([1]; first compound 5 µM): 0.209
relative viability ([1]; first compound 15.81 µM): 0.302
relative viability ([1]; first compound 50 µM): 0.189
relative viability ([1]; first compound 158.11 µM): 0.143
relative viability ([1]; first compound 500 µM): 0.3
relative viability ([2]; first compound 5 µM): 0.734
relative viability ([2]; first compound 15.81 µM): 0.682
relative viability ([2]; first compound 50 µM): 0.581
relative viability ([2]; first compound 158.11 µM): 0.666
relative viability ([2]; first compound 500 µM): 0.677
relative viability ([3]; first compound 5 µM): 0.895
relative viability ([3]; first compound 15.81 µM): 0.785
relative viability ([3]; first compound 50 µM): 0.895
relative viability ([3]; first compound 158.11 µM): 0.856
relative viability ([3]; first compound 500 µM): 0.209
relative viability ([4]; first compound 5 µM): 0.37
relative viability ([4]; first compound 15.81 µM): 0.0178
relative viability ([4]; first compound 50 µM): 0.302
relative viability ([4]; first compound 158.11 µM): 0.204
relative viability ([4]; first compound 500 µM): 0.041
relative viability ([5]; first compound 5 µM): 0.256
relative viability ([5]; first compound 15.81 µM): 0.203
relative viability ([5]; first compound 50 µM): 0.282
relative viability ([5]; first compound 158.11 µM): 0.138
relative viability ([5]; first compound 500 µM): 0.0061
relative viability ([6]; first compound 5 µM): 1.11
relative viability ([6]; first compound 15.81 µM): 1.13
relative viability ([6]; first compound 50 µM): 1.08
relative viability ([6]; first compound 158.11 µM): 0.604
relative viability ([6]; first compound 500 µM): 0.855
relative viability ([7]; first compound 5 µM): 0.617
relative viability ([7]; first compound 15.81 µM): 0.547
relative viability ([7]; first compound 50 µM): 0.669
relative viability ([7]; first compound 158.11 µM): 0.555
relative viability ([7]; first compound 500 µM): 0.561
relative viability ([8]; first compound 5 µM): 0.738
relative viability ([8]; first compound 15.81 µM): 0.764
relative viability ([8]; first compound 50 µM): 0.755
relative viability ([8]; first compound 158.11 µM): 0.65
relative viability ([8]; first compound 500 µM): 0.501
relative viability ([9]; first compound 5 µM): 1.21
relative viability ([9]; first compound 15.81 µM): 1.04
relative viability ([9]; first compound 50 µM): 1.14
relative viability ([9]; first compound 158.11 µM): 0.819
relative viability ([9]; first compound 500 µM): 0.476
relative viability ([10]; first compound 5 µM): 0.42
relative viability ([10]; first compound 15.81 µM): 0.403
relative viability ([10]; first compound 50 µM): 0.381
relative viability ([10]; first compound 158.11 µM): 0.4
relative viability ([10]; first compound 500 µM): 0.327
relative viability ([11]; first compound 15.81 µM): 0.606
relative viability ([11]; first compound 50 µM): 0.674
relative viability ([11]; first compound 158.11 µM): 0.543
relative viability ([11]; first compound 500 µM): 0.738
relative viability ([12]; first compound 5 µM): 0.217
relative viability ([12]; first compound 15.81 µM): 0.181
relative viability ([12]; first compound 50 µM): 0.201
relative viability ([12]; first compound 158.11 µM): 0.179
relative viability ([12]; first compound 500 µM): 0.127
relative viability ([13]; first compound 5 µM): 0.755
relative viability ([13]; first compound 15.81 µM): 0.63
relative viability ([13]; first compound 50 µM): 0.736
relative viability ([13]; first compound 158.11 µM): 0.557
relative viability ([13]; first compound 500 µM): 0.235
relative viability ([14]; first compound 5 µM): 0.691
relative viability ([14]; first compound 15.81 µM): 0.616
relative viability ([14]; first compound 50 µM): 0.57
relative viability ([14]; first compound 158.11 µM): 0.135
relative viability ([14]; first compound 500 µM): 0.047
relative viability ([15]; first compound 5 µM): 0.511
relative viability ([15]; first compound 15.81 µM): 0.487
relative viability ([15]; first compound 50 µM): 0.473
relative viability ([15]; first compound 158.11 µM): 0.307
relative viability ([15]; first compound 500 µM): 0.345
relative viability ([16]; first compound 5 µM): 1.03
relative viability ([16]; first compound 15.81 µM): 0.966
relative viability ([16]; first compound 50 µM): 1.01
relative viability ([16]; first compound 158.11 µM): 0.967
relative viability ([16]; first compound 500 µM): 0.66
relative viability ([17]; first compound 5 µM): 0.569
relative viability ([17]; first compound 15.81 µM): 0.451
relative viability ([17]; first compound 50 µM): 0.474
relative viability ([17]; first compound 158.11 µM): 0.438
relative viability ([17]; first compound 500 µM): 0.56
